In article PMC12025681, “Repositioning Fluoxetine as a TRPV3 Channel Inhibitor to Alleviate Skin Inflammation and Pruritus” (Current Issues in Molecular Biology, 2025):

How the values were obtained:
human TRPV3 (hTRPV3) = target: T1, human TRPV3 (hTRPV3) (Homo sapiens, UniProt Q8NET8); test: whole-cell patch clamp and inside-out single-channel recording in transfected HEK293T cells (2-APB-evoked currents); type: cell-based
T1 sequence (Q8NET8 1-790): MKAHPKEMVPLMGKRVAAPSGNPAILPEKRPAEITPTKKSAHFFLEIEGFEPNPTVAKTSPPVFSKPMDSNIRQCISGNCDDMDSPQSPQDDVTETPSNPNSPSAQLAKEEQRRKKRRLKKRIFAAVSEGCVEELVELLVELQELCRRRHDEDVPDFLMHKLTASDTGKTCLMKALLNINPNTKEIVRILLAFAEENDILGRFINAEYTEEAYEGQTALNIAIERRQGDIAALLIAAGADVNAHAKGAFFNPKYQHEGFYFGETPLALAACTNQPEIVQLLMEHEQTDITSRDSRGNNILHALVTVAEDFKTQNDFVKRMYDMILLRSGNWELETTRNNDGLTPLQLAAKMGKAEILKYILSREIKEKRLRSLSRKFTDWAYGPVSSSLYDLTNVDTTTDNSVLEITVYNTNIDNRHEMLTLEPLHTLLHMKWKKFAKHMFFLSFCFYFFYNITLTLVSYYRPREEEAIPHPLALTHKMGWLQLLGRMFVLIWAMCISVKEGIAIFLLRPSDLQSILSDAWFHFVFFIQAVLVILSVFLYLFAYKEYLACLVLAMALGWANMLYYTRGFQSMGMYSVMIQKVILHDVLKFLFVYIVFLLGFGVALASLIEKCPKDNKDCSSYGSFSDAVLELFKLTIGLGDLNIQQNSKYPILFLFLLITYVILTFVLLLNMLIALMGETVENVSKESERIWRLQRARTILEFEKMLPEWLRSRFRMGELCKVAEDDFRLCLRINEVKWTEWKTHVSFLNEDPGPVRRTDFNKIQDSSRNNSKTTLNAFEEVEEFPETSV

TRPM8 (hTRPM8) = TRPM8 (hTRPM8) (Homo sapiens, UniProt Q7Z2W7); test: whole-cell patch clamp in transfected HEK293T cells (menthol-evoked currents); type: cell-based
Chain of TRPM8 (hTRPM8) (Q7Z2W7 whole entry): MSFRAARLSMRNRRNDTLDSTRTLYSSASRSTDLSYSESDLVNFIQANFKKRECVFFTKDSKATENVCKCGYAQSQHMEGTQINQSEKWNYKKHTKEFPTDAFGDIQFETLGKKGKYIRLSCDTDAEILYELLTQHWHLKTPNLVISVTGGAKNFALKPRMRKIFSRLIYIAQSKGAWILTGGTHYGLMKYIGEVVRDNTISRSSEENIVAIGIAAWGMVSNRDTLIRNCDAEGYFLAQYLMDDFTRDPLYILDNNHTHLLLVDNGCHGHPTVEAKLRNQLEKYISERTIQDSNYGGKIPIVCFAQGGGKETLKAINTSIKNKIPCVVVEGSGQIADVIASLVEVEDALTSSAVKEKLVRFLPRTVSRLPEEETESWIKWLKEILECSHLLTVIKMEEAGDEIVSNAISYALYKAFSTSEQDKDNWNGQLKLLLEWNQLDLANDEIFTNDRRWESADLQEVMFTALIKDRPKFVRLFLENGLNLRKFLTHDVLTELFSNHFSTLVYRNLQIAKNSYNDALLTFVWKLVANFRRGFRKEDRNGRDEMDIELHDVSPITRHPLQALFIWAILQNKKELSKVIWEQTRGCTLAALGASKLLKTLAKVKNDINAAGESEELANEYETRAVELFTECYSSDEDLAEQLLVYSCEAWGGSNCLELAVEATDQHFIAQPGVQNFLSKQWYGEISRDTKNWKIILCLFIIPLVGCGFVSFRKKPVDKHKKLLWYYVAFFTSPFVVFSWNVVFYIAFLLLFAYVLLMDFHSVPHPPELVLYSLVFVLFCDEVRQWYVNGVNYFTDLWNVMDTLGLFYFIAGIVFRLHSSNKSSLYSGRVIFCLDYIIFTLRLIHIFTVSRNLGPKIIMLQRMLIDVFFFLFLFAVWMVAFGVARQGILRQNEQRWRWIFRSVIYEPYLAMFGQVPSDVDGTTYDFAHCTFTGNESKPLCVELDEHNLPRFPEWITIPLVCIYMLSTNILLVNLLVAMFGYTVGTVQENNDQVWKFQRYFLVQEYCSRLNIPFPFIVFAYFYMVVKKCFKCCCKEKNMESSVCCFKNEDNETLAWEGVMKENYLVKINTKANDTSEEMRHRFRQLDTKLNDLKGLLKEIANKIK

## CNCCC(Oc1ccc(C(F)(F)F)cc1)c1ccccc1 (centres unmarked) [FLX, Fluoxetine]
Human TRPV3 (hTRPV3)
  IC50: 10.2 ± 2.34 µM
TRPM8 (hTRPM8)
  IC50: 20 ± 3.3 µM
